Source: patent publication US12171756B2, “NLRP3 modulators” (Innate Tumor Immunity, Inc., priority 2017, dated 2024)

What was measured:
human TLR8 = molecular target: T1, human TLR8 (Homo sapiens, UniProt Q9NR97); experiment: In vitro human TLR8 binding reporter assay (HEK-Blue, NF-kB/AP1-inducible SEAP); format: cell-based; conditions: HEK-Blue human TLR8 SEAP reporter cells; activity range classes; read-out: TLR8 Agonist EC50
T1 construct: host or cells: human HEK-Blue cells (HEK293-derived) co-expressing TLR8 and an NF-kB/AP1-inducible SEAP reporter
T1 sequence (Q9NR97 27-1041): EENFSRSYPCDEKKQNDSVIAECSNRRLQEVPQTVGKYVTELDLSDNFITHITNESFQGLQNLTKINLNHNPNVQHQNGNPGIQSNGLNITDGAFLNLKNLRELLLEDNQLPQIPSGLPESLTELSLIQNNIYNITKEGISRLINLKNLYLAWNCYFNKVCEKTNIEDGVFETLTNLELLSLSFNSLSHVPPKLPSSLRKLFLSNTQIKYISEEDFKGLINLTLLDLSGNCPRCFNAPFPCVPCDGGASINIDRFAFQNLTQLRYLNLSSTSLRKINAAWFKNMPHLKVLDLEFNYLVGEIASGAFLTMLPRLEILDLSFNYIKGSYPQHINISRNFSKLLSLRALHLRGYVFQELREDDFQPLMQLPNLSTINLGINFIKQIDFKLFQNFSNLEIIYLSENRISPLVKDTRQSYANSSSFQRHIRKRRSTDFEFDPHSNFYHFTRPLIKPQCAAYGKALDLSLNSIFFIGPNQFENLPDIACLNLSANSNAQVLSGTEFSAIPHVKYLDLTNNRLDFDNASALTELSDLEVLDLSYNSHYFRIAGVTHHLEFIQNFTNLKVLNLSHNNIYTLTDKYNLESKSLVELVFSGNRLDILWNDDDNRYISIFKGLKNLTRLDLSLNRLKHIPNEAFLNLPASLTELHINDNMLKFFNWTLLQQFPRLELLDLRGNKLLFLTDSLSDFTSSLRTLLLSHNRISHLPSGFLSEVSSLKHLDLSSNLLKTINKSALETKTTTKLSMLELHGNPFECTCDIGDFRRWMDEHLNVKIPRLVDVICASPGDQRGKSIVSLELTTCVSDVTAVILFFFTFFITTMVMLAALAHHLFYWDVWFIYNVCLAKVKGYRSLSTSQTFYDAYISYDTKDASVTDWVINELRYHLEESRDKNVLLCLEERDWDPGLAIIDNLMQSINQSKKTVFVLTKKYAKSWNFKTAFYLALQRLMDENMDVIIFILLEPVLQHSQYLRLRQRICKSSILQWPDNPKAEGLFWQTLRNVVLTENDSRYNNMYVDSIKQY
Method in brief: (§1)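 EC50s come from NF-kB/AP1-driven SEAP secretion in HEK-Blue cells expressing TLR7 or TLR8, measured with Quanti-Blue after an 18 h compound incubation. Maximal response is defined by a 50 μM reference standard.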

[1] = tested on: IL-1β production in PMA-differentiated THP-1 cells; experiment: Measurement of IL-1β production in PMA-differentiated THP-1 cells (ELISA, 4 hours); format: cell-based, human; conditions: Homo sapiens, THP-1, human IL-1β production, assayed using one or more of the described procedures, read-out: NLRP3 hIL1B IC50
Method in brief: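 THP-1 cells differentiated with PMA (10 μg/ml, 24 h), replated at 1×10^6 cells/ml in RPMI with 2% FBS and exposed to compounds (e.g. 0.1–100 μM, 1% DMSO final) for 4 hours. IL-1β in cell-free supernatant quantified by ELISA against vehicle control.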

human TLR7 = molecular target: T2, human TLR7 (Homo sapiens, UniProt Q9NYK1); experiment: In vitro human TLR7 binding reporter assay (HEK-Blue, NF-kB/AP1-inducible SEAP); format: cell-based; conditions: HEK-Blue human TLR7 SEAP reporter cells; activity range classes; read-out: TLR7 Agonist EC50
T2 construct: host or cells: human HEK-Blue cells (HEK293-derived) co-expressing TLR7 and an NF-kB/AP1-inducible SEAP reporter
T2 sequence (Q9NYK1 27-1049): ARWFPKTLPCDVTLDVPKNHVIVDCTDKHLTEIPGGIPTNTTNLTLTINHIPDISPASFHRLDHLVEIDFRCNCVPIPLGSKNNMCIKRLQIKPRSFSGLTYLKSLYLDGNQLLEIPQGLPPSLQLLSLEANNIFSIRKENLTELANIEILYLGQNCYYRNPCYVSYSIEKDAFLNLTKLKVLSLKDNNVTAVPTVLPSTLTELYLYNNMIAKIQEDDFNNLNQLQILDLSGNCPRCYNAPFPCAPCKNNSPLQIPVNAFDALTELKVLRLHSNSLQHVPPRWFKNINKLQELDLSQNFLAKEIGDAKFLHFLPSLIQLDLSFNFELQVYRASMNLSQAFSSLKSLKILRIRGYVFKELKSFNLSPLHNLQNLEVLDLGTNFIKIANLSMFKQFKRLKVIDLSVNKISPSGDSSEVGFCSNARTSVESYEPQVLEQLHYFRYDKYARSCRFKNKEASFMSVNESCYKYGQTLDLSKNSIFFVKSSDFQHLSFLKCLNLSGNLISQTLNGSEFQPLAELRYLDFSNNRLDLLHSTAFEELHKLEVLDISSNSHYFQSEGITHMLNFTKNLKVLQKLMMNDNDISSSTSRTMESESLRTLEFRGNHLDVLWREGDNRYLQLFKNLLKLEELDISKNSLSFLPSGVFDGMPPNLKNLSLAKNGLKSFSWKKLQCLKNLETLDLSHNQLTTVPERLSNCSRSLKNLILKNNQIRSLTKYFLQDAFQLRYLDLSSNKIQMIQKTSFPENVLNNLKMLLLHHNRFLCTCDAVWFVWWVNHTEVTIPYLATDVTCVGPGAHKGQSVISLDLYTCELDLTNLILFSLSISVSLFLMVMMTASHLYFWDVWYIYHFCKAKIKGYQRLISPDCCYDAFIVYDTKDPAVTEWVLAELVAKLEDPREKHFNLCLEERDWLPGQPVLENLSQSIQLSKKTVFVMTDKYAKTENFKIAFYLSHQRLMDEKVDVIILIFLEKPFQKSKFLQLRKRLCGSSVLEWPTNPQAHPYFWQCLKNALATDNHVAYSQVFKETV
Method in brief: as §1

| Compound | EC50 (human TLR8) [µM] | IC50 [1] [µM] | EC50 (human TLR7) [µM] |
| --- | --- | --- | --- |
| CS(=O)(=O)Nc1ccc(CNc2cc(N)nc3cc(-c4ccn[nH]4)ccc23)cc1 [Compound 258] | > 100 | 1.84 | > 100 |
| COc1cccc(CNc2cc(N)nc3cc(-c4ccn[nH]4)ccc23)c1 [Compound 259] | > 100 | 0.64 | > 100 |
| Nc1cc(NCc2cccc(F)c2)c2ccc(-c3ccn[nH]3)cc2n1 [Compound 260] | > 100 | 0.32 | > 100 |
| Nc1cc(NCCc2cc[nH]n2)c2ccc(-c3ccn[nH]3)cc2n1 [Compound 261] | > 100 | 0.14 | > 100 |
| Nc1cc(NCCn2cccn2)c2ccc(-c3ccn[nH]3)cc2n1 [Compound 262] | > 100 | 0.12 | > 100 |
| CN(Cc1cc[nH]n1)c1cc(N)nc2cc(-c3ccn[nH]3)ccc12 [Compound 263] | > 100 | 2.87 | > 100 |
| CN(Cc1cccnc1)c1cc(N)nc2cc(-c3ccn[nH]3)ccc12 [Compound 264] | > 100 | 2.89 | > 100 |
| Nc1cc(N2CCCOCC2)c2ccc(-c3ccn[nH]3)cc2n1 [Compound 265] | > 100 | 0.35 | > 100 |
| Nc1cc(NCC2COCCO2)c2ccc(-c3ccn[nH]3)cc2n1 (stereo not drawn) [Compound 266] | > 100 | 0.39 | > 100 |
| Nc1cc(NC[C@@H]2CNCCO2)c2ccc(-c3ccn[nH]3)cc2n1 [Compound 267] | > 100 | 1.59 | > 100 |
| Nc1cc(NC[C@@H]2COCCN2)c2ccc(-c3ccn[nH]3)cc2n1 [Compound 268] | > 100 | 0.97 | > 100 |
| Nc1cc(NC[C@H]2COCCN2)c2ccc(-c3ccn[nH]3)cc2n1 [Compound 269] | > 100 | 1.15 | > 100 |
| CC(C)(C)OC(=O)N1CC(Nc2cc(N)nc3cc(-c4ccn[nH]4)ccc23)C1 [Compound 270] | > 100 | 7.37 | > 100 |
| Nc1cc(N2CC(F)(F)C2)c2ccc(-c3ccn[nH]3)cc2n1 [Compound 271] | > 100 | 0.36 | > 100 |
| Nc1cc(N2CCC[C@@H]2CO)c2ccc(-c3ccn[nH]3)cc2n1 [Compound 272] | > 100 | 6.22 | > 100 |
| Nc1cc(NC2CCC2)c2ccc(-c3ccn[nH]3)cc2n1 [Compound 273] | > 100 | 0.17 | > 100 |
| Nc1cc(N2CCCC(CO)C2)c2ccc(-c3ccn[nH]3)cc2n1 (stereo not drawn) [Compound 274] | > 100 | 1.98 | > 100 |
| Nc1cc(NC2CCOC2)c2ccc(-c3ccn[nH]3)cc2n1 (stereo not drawn) [Compound 275] | > 100 | 0.2 | > 100 |
| Nc1cc(N[C@@H]2CCOC2)c2ccc(-c3ccn[nH]3)cc2n1 [Compound 276] | > 100 | 0.52 | > 100 |
